Data: patent publication US5059607A, “Imidazolyl benzisoquinolines useful as 5-HT3 receptor antagonists” (Ono-Pharmaceutical Co., Ltd., priority 1989, dated 1991)
Counter-ions that a name gives are not always drawn. Like-named read-outs stand apart in the source and are kept apart here.

Experiments:
5-HT3 receptor = target: T1, 5-HT3 receptor (Rattus norvegicus, UniProt P35563); test: Antagonistic activity against 5-HT3 receptor in vivo in rats (suppression of 5-HT-induced reflex bradycardia); conditions: urethane-anesthetized male Wister rat
T1 construct: 5-HT3 receptor in vivo in rats; from tissue; host or cells: whole anesthetized male Wistar rat (in vivo; endogenous receptor, no preparation isolated)
T1 sequence (P35563 24-483): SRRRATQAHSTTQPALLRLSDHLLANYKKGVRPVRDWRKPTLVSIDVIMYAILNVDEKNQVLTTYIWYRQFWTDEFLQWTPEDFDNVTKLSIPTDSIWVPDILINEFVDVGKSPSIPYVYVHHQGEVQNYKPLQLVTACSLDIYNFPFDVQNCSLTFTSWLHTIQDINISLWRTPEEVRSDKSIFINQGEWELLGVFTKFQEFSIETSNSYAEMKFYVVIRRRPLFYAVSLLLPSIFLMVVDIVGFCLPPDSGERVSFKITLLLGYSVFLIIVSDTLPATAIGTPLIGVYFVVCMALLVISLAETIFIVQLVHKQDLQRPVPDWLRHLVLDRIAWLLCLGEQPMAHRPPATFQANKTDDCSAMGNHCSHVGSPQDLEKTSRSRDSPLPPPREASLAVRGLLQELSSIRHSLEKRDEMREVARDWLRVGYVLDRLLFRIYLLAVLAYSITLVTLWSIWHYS
Method: Male Wister rat was urethane-anesthetized and fixed. Cannulas were inserted in the carotid artery and in the thigh vein as used for the recording of blood pressure and heart beat, and for the administration of the test compounds, respectively.
Several amounts of a compound of the present invention were administered from the vein or to the duodenum. 5-HT was administered rapidly to the vein, 2 mins. after administration of the compound of the present invention.

[1] = Acute toxicity (LD50) in mice; conditions: mouse, in vivo
[2] = iv, 5-HT i.v. 2 mins after compound, read-out: IC50 i.v. (antagonistic activity against 5-HT3 receptor in vivo in rats)

Row | SMILES | ED50 (5-HT3 receptor; [2]) [µg/kg] | ED50 (5-HT3 receptor; i.d. (to the duodenum), read-out: ID50 i.d. (antagonistic activity against 5-HT3 receptor in vivo in rats)) [µg/kg] | LD50 ([1]; intravenous administration, read-out: acute toxicity (LD50), intravenous) [µg/kg] | LD50 ([1]; oral administration, read-out: acute toxicity (LD50), oral) [µg/kg]
1 | Cc1[nH]cnc1Cn1ccc2cc(C)c3ccccc3c2c1=O.Cl [1(d), 2-(5-methylimidazol-4-ylmethyl)-6-methyl-1,2-dihydrobenz[1,2-h]isoquinolin-1-one hydrochloride] | 0.89 |  |  | 
2 | Cc1[nH]cnc1Cn1ccc2ccc3ccccc3c2c1=O.Cl [Example 1, 2-(5-methylimidazol-4-yl-methyl)-1,2-dihydrobenz[1,2-h]isoquinolin-1-one hydrochloride] | 0.29 | 7.5 | 94000 | > 800000
3 | Cc1[nH]cnc1Cn1ccc2c(O)cc3ccccc3c2c1=O.Cl [Example 1(f), 2-(5-methylimidazol-4-ylmethyl)-5-hydroxy-1,2-dihydrobenz[1,2-h]isoquinolin-1-one hydrochloride] | 0.62 |  |  | 
4 | COc1cc2ccccc2c2c(=O)n(Cc3nc[nH]c3C)ccc12.Cl [1(a), 2-(5-methylimidazol-4-ylmethyl)-5-methoxy-1,2-dihydrobenz[1,2-h]isoquinolin-1-one hydrochloride] | 2.4 |  |  | 
5 | Cc1[nH]cnc1Cn1ccc2c(C)cc3ccccc3c2c1=O [1(e), 2-(5-methylimidazol-4-ylmethyl)-5-methyl-1,2-dihydrobenz[1,2-h]isoqionolin-1-one hydrochloride] | 1.19 |  |  | 
6 | Cc1[nH]cnc1Cn1ccc2cc(Br)c3ccccc3c2c1=O.Cl [1(g), 2-(5-methylimidazol-4-ylmethyl)-6-bromo-1,2-dihydrobenz[1,2-h]isoquinolin-1-one hydrochloride] | 5.87 |  |  | 
